According to ChEMBL document CHEMBL3813663, “Aryl morpholino triazenes inhibit cytochrome P450 1A1 and 1B1” (Bioorg Med Chem Lett, 2016):

How the values were obtained:
Cytochrome P450 1A1 = Cytochrome P450 1A1 (Homo sapiens, UniProt P04798)
Description: Inhibition of recombinant human CYP1A1 expressed in Escherichia coli DH5aplha cells assessed as O-deethylation of ethoxyresorufin in presence of NADPH measured after 2 mins by spectrofluorometric method

CYP1A1 = CYP1A1 (Homo sapiens, UniProt P04798); assay: in vitro
Description: Inhibition of recombinant human CYP1A1 expressed in Escherichia coli DH5aplha cells assessed as O-deethylation of ethoxyresorufin in presence of NADPH at 100 uM measured after 2 mins by spectrofluorometric method

Cytochrome P450 1B1 = target: T1, Cytochrome P450 1B1 (Homo sapiens, UniProt Q16678)
T1 sequence (Q16678 whole entry): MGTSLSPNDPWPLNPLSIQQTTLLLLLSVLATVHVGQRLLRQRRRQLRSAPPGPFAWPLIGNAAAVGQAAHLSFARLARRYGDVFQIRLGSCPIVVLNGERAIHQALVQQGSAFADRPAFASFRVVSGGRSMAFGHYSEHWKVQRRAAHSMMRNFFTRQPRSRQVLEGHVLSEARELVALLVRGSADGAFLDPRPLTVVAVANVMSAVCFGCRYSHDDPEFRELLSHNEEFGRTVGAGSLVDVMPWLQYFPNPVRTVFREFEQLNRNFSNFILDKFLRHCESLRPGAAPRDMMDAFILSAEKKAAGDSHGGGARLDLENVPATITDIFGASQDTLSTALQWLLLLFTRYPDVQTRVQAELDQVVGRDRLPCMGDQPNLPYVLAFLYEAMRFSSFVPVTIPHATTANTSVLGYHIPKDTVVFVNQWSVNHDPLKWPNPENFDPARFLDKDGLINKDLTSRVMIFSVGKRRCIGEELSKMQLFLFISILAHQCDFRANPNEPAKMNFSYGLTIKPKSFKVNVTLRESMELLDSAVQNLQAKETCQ
Description: Inhibition of recombinant human CYP1B1 expressed in Escherichia coli DH5aplha cells assessed as O-deethylation of ethoxyresorufin in presence of NADPH measured after 2 mins by spectrofluorometric method

CYP1B1 = target: T2, CYP1B1 (Homo sapiens, UniProt Q16678); assay: in vitro
T2 sequence (Q16678 whole entry): T1 sequence (Q16678 whole entry)
Description: Inhibition of recombinant human CYP1B1 expressed in Escherichia coli DH5aplha cells assessed as O-deethylation of ethoxyresorufin in presence of NADPH at 100 uM measured after 2 mins by spectrofluorometric method

[1] = probe ethoxyresorufin (O-deethylation)

Sequence of Cytochrome P450 1A1 (P04798 whole entry): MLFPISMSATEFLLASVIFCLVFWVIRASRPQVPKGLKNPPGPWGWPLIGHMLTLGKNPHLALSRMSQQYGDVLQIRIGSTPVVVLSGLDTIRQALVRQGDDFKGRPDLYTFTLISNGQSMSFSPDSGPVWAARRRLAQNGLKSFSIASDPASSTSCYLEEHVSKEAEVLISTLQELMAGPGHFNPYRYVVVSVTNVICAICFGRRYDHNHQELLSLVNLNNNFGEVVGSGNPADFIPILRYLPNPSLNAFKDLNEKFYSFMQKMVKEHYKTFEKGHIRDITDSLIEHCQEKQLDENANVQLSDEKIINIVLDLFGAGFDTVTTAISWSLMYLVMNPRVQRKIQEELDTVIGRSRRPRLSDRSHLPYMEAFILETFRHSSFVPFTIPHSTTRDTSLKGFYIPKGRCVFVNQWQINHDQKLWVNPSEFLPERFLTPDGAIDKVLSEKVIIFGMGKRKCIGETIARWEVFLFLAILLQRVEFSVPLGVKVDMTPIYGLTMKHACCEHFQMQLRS
Sequence of CYP1A1 (P04798 whole entry): as above

Work on `Oc1ccc(/C=C/c2cc(O)cc(O)c2)cc1` [RESVERATROL] yielded an IC50 (Cytochrome P450 1A1) of 34 µM, an activity at 2 min, 100 µM (CYP1A1; [1]) of 11% and an IC50 (Cytochrome P450 1B1) of 55 µM. For the same molecule, the activity at 2 min, 100 µM (CYP1B1) was 56%.
Work on `Nc1ccc(Br)cc1` [4-BROMOANILINE] yielded an activity at 2 min, 100 µM (CYP1A1; [1]) of 100% and an activity at 2 min, 100 µM (CYP1B1; [1]) of 94%.
In the case of `Nc1ccccc1` [ANILINE], the activity at 2 min, 100 µM (CYP1A1; [1]) is reported as 100% and the activity at 2 min, 100 µM (CYP1B1; [1]) is reported as 100%.
Molecule `CC(=O)c1ccc(/N=N/N2CCOCC2)cc1` has an IC50 (Cytochrome P450 1A1) of 82 µM, an activity at 2 min, 100 µM (CYP1A1; [1]) of 70% and an activity at 2 min, 100 µM (CYP1B1; [1]) of 100%.
For `C1COCCN1` [MORPHOLINE], the activity at 2 min, 100 µM (CYP1A1) was 91% and the activity at 2 min, 100 µM (CYP1B1) was 100%.
`O=[N+]([O-])c1ccc(/N=N/N2CCOCC2)cc1` gave an IC50 (Cytochrome P450 1A1) of 115 µM, an activity at 2 min, 100 µM (CYP1A1; [1]) of 79% and an IC50 (Cytochrome P450 1B1) of 2 µM. It also gave an activity at 2 min, 100 µM (CYP1B1) of 16%.
For `O=C(O)c1ccc(/N=N/N2CCOCC2)cc1`, the IC50 (Cytochrome P450 1A1) was 167 µM, the activity at 2 min, 100 µM (CYP1A1; [1]) was 67% and the IC50 (Cytochrome P450 1B1) was 400 µM. The activity at 2 min, 100 µM (CYP1B1; [1]) was 81%.
With `c1ccc(/N=N/N2CCOCC2)cc1` the IC50 (Cytochrome P450 1A1) was 120 µM, the activity at 2 min, 100 µM (CYP1A1; [1]) was 56% and the IC50 (Cytochrome P450 1B1) was 163 µM. It also gave an activity at 2 min, 100 µM (CYP1B1; [1]) of 74%.
Molecule `COc1cc(N)cc(OC)c1OC` has an activity at 2 min, 100 µM (CYP1A1; [1]) of 95% and an activity at 2 min, 100 µM (CYP1B1; [1]) of 100%.
With `Nc1ccc([N+](=O)[O-])cc1` [4-NITROANILINE] the activity at 2 min, 100 µM (CYP1A1; [1]) was 100% and the activity at 2 min, 100 µM (CYP1B1; [1]) was 92%.
Molecule `Nc1ccc(C(=O)O)cc1` [AMINOBENZOIC ACID] has an activity at 2 min, 100 µM (CYP1A1; [1]) of 100%, an IC50 (Cytochrome P450 1B1) greater than 120 µM and an activity at 2 min, 100 µM (CYP1B1; [1]) of 75%.
Molecule `COc1cc(/N=N/N2CCOCC2)cc(OC)c1OC` has an IC50 (Cytochrome P450 1A1) of 10 µM, an activity at 2 min, 100 µM (CYP1A1; [1]) of 8% and an IC50 (Cytochrome P450 1B1) of 18 µM. It also gave an activity at 2 min, 100 µM (CYP1B1; [1]) of 14%.
Work on `Brc1ccc(/N=N/N2CCOCC2)cc1` yielded an IC50 (Cytochrome P450 1A1) of 63 µM, an activity at 2 min, 100 µM (CYP1A1) of 53% and an IC50 (Cytochrome P450 1B1) of 7 µM. The activity at 2 min, 100 µM (CYP1B1; [1]) was 59%.
